Laboratory results taken from US20080045564A1 (priority 2006, published 2008).

Experiments:
human CYP1A1 = settings: due to increased mRNA expression levels; Bapiro et al.; cited from earlier work

SMILES	induction of CYP2B6 activity (statistical significance, summary over three donors) (CYP2B6; hepatocytes)	induction of human CYP1A1 activity (human CYP1A1)	induction of CYP2B6 by reference inducer (CYP2B6; 1 mM Phenobarbital, each hepatocyte donor)
C=C[C@H]1C[N@@]2CC[C@H]1C[C@H]2[C@H](O)c1ccnc2ccc(OC)cc12 [quinine, cinchonan-9-ol, 6′-methoxy-, (8a,9R)-]	an inducer	induced	–
CCC1(c2ccccc2)C(=O)NC(=O)NC1=O [Phenobarbital]	–	–	statistically significant amount of induction
